Read-outs that look alike come from different tables or passages of the source.
Assays:
BxPC3 cells = assay: Cell viability assay (CellTiter-Glo), association with olaparib; assay type: cell-based, human; conditions: BxPC3; for olaparib association (increase of antiproliferative effect of olaparib): one or two doses in the range of the ELISA EC50, concentration not given
Description: (§1) Our working hypothesis is that compounds disrupting RAD51-BRCA2 interaction should affect HR repair and increase the efficacy of PARPi in treating breast, ovarian, and pancreatic cancer. For its clinical relevance, pancreatic adenocarcinoma was selected as our final model for cell-based experiments, and BxPC3 cells were selected for a straightforward comparison with the previously reported triazole derivatives.[30],[31] BxPC3 is derived from a human adenocarcinoma that expresses fully functional BRCA2.[38] As shown in Table 2 and according to the rationale of our hypothesis, our preliminary screening consisted of verifying the efficacy of compounds in inhibiting cell HR and/or in increasing the antiproliferative effect of olaparib. […] HR activity was assessed by evaluating the recombination rate between two transfected plasmids, using a commercially available assay. […] As for the emissucinic acid-containing compounds (4d, 12d, 18d, 20d–23d, 30d, 31d), one of the reasons for their lower potency in cells might be the general poor permeability, likely related to the ionizable acid moiety. […] We then characterized 35d in additional biophysical and cell-based experiments.
Cell viability was assessed with the CellTiter-Glo luminescent cell viability assay from Promega. For this experiment, 1 × 10^4 cells in 200 μL of culture medium were seeded into each well of a 96-multiwell white body plate and allowed to adhere overnight. After 72 h incubation in the presence of olaparib (10 μM) and the RAD51-BRCA2 disruptors alone or in combination, the plate was allowed to equilibrate at room temperature for 30 min and the CellTiter-Glo reactive was directly added to each well. The plate was kept on a shaker for 10 min to induce cell lysis, and its luminescence was measured with a Fluoroskan Ascent FL reader (Labsystems).

[1] = system: homologous recombination in BxPC3 cells; assay: Homologous recombination assay (two-plasmid recombination, real-time PCR); assay type: cell-based, human; conditions: for HR inhibition (in words): BxPC3, one or two doses in the range of the ELISA EC50, NDD = not dose-dependent
Description: as §1
Homologous recombination (HR) was assessed by using a commercially available assay (Norgen). This assay is based on cell transfection with two plasmids that, upon cell entry, recombine. The efficiency of HR can be assessed by real-time PCR, using primer mixtures included in the assay kit. Different primer mixtures allow one to discriminate between the original plasmid backbones and their recombination product.
BxPC3 cells (2 × 10^5 per well) were seeded in a 24-well plate and allowed to adhere overnight. Co-transfection with the two plasmids was performed in Lipofectamine 2000 (Invitrogen) according to the manufacturer’s instructions. During transfection (5 h), cells were exposed to different doses of RAD51-BRCA2 disruptors, dissolved in RPMI in the presence of 0.6% DMSO. After washing with PBS, cells were harvested, and DNA was isolated using Illustra Tissue and Cell Genomic Prep Mini Spin kit (GE Healthcare). Sample concentration was measured using an ONDA Nano Genius photometer. The efficiency of HR was assessed by real-time PCR, using 25 ng of template, the primer mixtures included in the assay kit and following the protocol indicated by the manufacturer. Data analysis was based on the ΔΔCt method: [recombination product/backbone plasmids]^treated versus [recombination product/backbone plasmids]^control.

BRC4–RAD51 interaction = molecular target: T1, BRC4–RAD51 interaction (Homo sapiens, UniProt Q06609); assay: Competitive biochemical ELISA assay (biotinylated BRC4 peptide vs RAD51); assay type: binding
T1 construct: purchased Creative Biomart (RAD51); Life Technologies (BRC4 peptide)
T1 sequence (Q06609 1-339): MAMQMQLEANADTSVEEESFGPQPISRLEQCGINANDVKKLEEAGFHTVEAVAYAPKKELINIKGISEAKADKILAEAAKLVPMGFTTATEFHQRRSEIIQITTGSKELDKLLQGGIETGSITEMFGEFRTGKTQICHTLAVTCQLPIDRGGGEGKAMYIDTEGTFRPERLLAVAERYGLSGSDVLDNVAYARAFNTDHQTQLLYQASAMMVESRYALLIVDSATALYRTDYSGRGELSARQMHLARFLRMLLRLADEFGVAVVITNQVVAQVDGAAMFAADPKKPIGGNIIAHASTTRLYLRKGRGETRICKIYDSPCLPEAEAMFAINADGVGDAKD
Procedure: To investigate the mechanism of action of the new dihydroquinolone pyrazoline derivatives, different biological assays were performed. As a primary screening, the ability of compounds 5d–57d to inhibit RAD51-BRCA2 interaction was investigated with a competitive biochemical ELISA assay against the parent compound 4d (Table 1). This assay is effective in evaluating the ability of new molecules to compete with BRC4 to bind to RAD51.[30] […] 18d–21d, 23d, 25d, 30d, and 31d were active at micromolar range, all very similar to the initial hit. […] The replacement of the aromatic ring A in combination with the substitution of the pyrazoline nitrogen with either propionyl or acetyl chain yielded compounds 33d–51d. […] As expected for PPI disruptors, the SARs of the new series of dihydroquinolone pyrazoline were rather complex to rationalize, with many cliffs and spikes that were difficult to understand. […] Accordingly, 4d, 12d, 18d, 20d–23d, 30d, 31d, 33d–36d, 39d, 45d, and 49d were submitted to cell-based study (Table 2).
Competitive ELISA screening assay using biotinylated BRC4 peptide to disrupt the BRC4–RAD51 interaction was performed by modifying the method described by Rajendra et al.[33] BRC4-biotinylated peptide (N-term biotin-[…] from Life Technologies) was used to coat 384-well plates (Nunc). After washing with PBS containing 0.05% Tween-20 (PBST) and blocking with the solution BSA 1% /PBST, overnight hybridization with human RAD51 protein (NP_002866 Creative Biomart, NY) was performed. Test compounds were added in dose response from 0.01 to 100 μM in triplicate with constant DMSO 1%. Antibody raised against RAD51 (Millipore) and HRP-secondary antibody staining to develop the 3,3′,5,5′-tetramethylbenzidine signal (Sigma) quenched with 1 M HCl was used as the assay readout. Colorimetric measure was read on a Victor5 (PerkinElmer) plate reader. BRC4 and Rad51 were included in the assay as positive control. Results were analyzed by using GraphPad software.

[2] = Solubility (as observed in cell culture media / stated); assay type: physicochemical; conditions: cell culture media
[3] = Table 2, compounds selected for cell-based study, read-out: EC50 ELISA
[4] = competition with BRC4 for RAD51, triplicate, ± standard deviation, NA = not active, racemic mixtures unless enantiomer named, read-out: EC50 (μM) on ELISA assay

## O=C(O)CCC(=O)N1N=C(c2c(-c3ccccc3)c3cc(Cl)ccc3[nH]c2=O)CC1c1ccc(Br)cc1 (stereo not drawn) [Compound 12d, 4-(5-(4-Bromophenyl)-3-(6-chloro-2-oxo-4-phenyl-1,2-dihydroquinolin-3-yl)-4,5-dihydro-1H-pyrazol-1-yl)-4-oxobutanoic Acid]
BxPC3 cells
  olaparib association (increase of antiproliferative effect of olaparib): olaparib association = not present
[1]
  HR inhibition (in words): HR inhibition = not present
BRC4–RAD51 interaction; [3]
  EC50: 16 ± 2 µM
BRC4–RAD51 interaction; [4]
  EC50: 16 ± 2 µM

## O=C(O)CCC(=O)N1N=C(c2c(-c3ccccc3)c3cc(Cl)ccc3[nH]c2=O)CC1c1ccc(-c2ccc(F)cc2)cc1 (stereo not drawn) [Compound 18d, 4-(3-(6-Chloro-2-oxo-4-phenyl-1,2-dihydroquinolin-3-yl)-5-(4′-fluoro-[1,1′-biphenyl]-4-yl)-4,5-dihydro-1H-pyrazol-1-yl)-4-oxobutanoic Acid]
BxPC3 cells
  olaparib association (increase of antiproliferative effect of olaparib): olaparib association = not present
BRC4–RAD51 interaction; [3]
  EC50: 13 ± 1 µM
BRC4–RAD51 interaction; [4]
  EC50: 13 ± 1 µM

## O=C(O)CCC(=O)N1N=C(c2c(-c3ccccc3)c3cc(Cl)ccc3[nH]c2=O)CC1c1ccc(-c2ccc(Br)cc2)cc1 (stereo not drawn) [Compound 20d]
BxPC3 cells
  olaparib association (increase of antiproliferative effect of olaparib): olaparib association = not present
BRC4–RAD51 interaction; [3]
  EC50: 20 ± 2 µM
BRC4–RAD51 interaction; [4]
  EC50: 20 ± 2 µM

## COc1ccc(-c2ccc(C3CC(c4c(-c5ccccc5)c5cc(Cl)ccc5[nH]c4=O)=NN3C(=O)CCC(=O)O)cc2)cc1 (stereo not drawn) [Compound 21d, 4-(3-(6-Chloro-2-oxo-4-phenyl-1,2-dihydroquinolin-3-yl)-5-(4′-methoxy-[1,1′-biphenyl]-4-yl)-4,5-dihydro-1H-pyrazol-1-yl)-4-oxobutanoic Acid]
[2]
  solubility in cell culture media: poor solubility
BRC4–RAD51 interaction; [3]
  EC50: 20 ± 4 µM
BRC4–RAD51 interaction; [4]
  EC50: 20 ± 4 µM

## Cn1ccc2cc(C3CC(c4c(-c5ccccc5)c5cc(Cl)ccc5[nH]c4=O)=NN3C(=O)CCC(=O)O)ccc21 (stereo not drawn) [Compound 22d, 4-(3-(6-Chloro-2-oxo-4-phenyl-1,2-dihydroquinolin-3-yl)-5-(1-methyl-1H-indol-5-yl)-4,5-dihydro-1H-pyrazol-1-yl)-4-oxobutanoic Acid]
BxPC3 cells; at 5 μM
  olaparib association: olaparib association = not present at 5 μM
[1]
  HR inhibition (in words): HR inhibition = not present
BRC4–RAD51 interaction; [3]
  EC50: 2 ± 0.5 µM
BRC4–RAD51 interaction; [4]
  EC50: 2 ± 0.5 µM

## CCn1ccc2cc(C3CC(c4c(-c5ccccc5)c5cc(Cl)ccc5[nH]c4=O)=NN3C(=O)CCC(=O)O)ccc21 (stereo not drawn) [Compound 23d, 4-(3-(6-Chloro-2-oxo-4-phenyl-1,2-dihydroquinolin-3-yl)-5-(1-ethyl-1H-indol-5-yl)-4,5-dihydro-1H-pyrazol-1-yl)-4-oxobutanoic Acid]
BxPC3 cells
  olaparib association (increase of antiproliferative effect of olaparib): olaparib association = not present
BRC4–RAD51 interaction; [3]
  EC50: 10 ± 2 µM
BRC4–RAD51 interaction; [4]
  EC50: 10 ± 2 µM

## CCn1ncc2cc(-c3ccc(C4CC(c5c(-c6ccccc6)c6cc(Cl)ccc6[nH]c5=O)=NN4C(=O)CCC(=O)O)cc3)ccc21 (stereo not drawn) [Compound 30d, 4-(3-(6-Chloro-2-oxo-4-phenyl-1,2-dihydroquinolin-3-yl)-5-(4-(1-ethyl-1H-indazol-5-yl)phenyl)-4,5-dihydro-1H-pyrazol-1-yl)-4-oxobutanoic Acid]
[2]
  solubility in cell culture media: poor solubility
BRC4–RAD51 interaction; [3]
  EC50: 15 ± 3 µM
BRC4–RAD51 interaction; [4]
  EC50: 15 ± 3 µM

## CCn1cc2cc(-c3ccc(C4CC(c5c(-c6ccccc6)c6cc(Cl)ccc6[nH]c5=O)=NN4C(=O)CCC(=O)O)cc3)ccc2n1 (stereo not drawn) [Compound 31d, 4-(3-(6-Chloro-2-oxo-4-phenyl-1,2-dihydroquinolin-3-yl)-5-(4-(2-ethyl-2H-indazol-5-yl)phenyl)-4,5-dihydro-1H-pyrazol-1-yl)-4-oxobutanoic Acid]
BxPC3 cells; at 20 μM
  olaparib association: olaparib association = present at 20 μM
[1]
  HR inhibition (in words): HR inhibition = NDD ^b
BRC4–RAD51 interaction; [3]
  EC50: 17 ± 4 µM
BRC4–RAD51 interaction; [4]
  EC50: 17 ± 4 µM

## CCC(=O)N1N=C(c2c(-c3ccccc3)c3cc(Cl)ccc3[nH]c2=O)CC1c1ccc(Cl)cc1 (stereo not drawn) [Compound 33d, 6-Chloro-3-(5-(4-chlorophenyl)-1-propionyl-4,5-dihydro-1H-pyrazol-3-yl)-4-phenylquinolin-2(1H)-one]
BxPC3 cells
  olaparib association (increase of antiproliferative effect of olaparib): olaparib association = not present
[1]
  HR inhibition (in words): HR inhibition = not present
BRC4–RAD51 interaction; [3]
  EC50: 8 ± 2 µM
BRC4–RAD51 interaction; [4]
  EC50: 8 ± 2 µM

## CC(=O)N1N=C(c2c(-c3ccccc3)c3cc(Cl)ccc3[nH]c2=O)CC1c1ccc(Cl)cc1 (stereo not drawn) [Compound 36d, 3-(1-Acetyl-5-(4-chlorophenyl)-4,5-dihydro-1H-pyrazol-3-yl)-6-chloro-4-phenylquinolin-2(1H)-one]
BxPC3 cells
  olaparib association (increase of antiproliferative effect of olaparib): olaparib association = not present
[1]; Homo sapiens, BXPC-3, 10 μM, BxPC3, 5 h during plasmid transfection
  inhibition at 10 µM: 24%
BRC4–RAD51 interaction; [3]
  EC50: 10 ± 0.7 µM
BRC4–RAD51 interaction; [4]
  EC50: 10 ± 0.7 µM

## CC(=O)N1N=C(c2c(-c3ccccc3)c3cc(Cl)ccc3[nH]c2=O)CC1c1ccc(C(C)(C)C)cc1 (stereo not drawn) [Compound 39d, 3-(1-Acetyl-5-(4-(tert-butyl)phenyl)-4,5-dihydro-1H-pyrazol-3-yl)-6-chloro-4-phenylquinolin-2(1H)-one]
[1]
  HR inhibition (in words): HR inhibition = NDD ^b
BRC4–RAD51 interaction; [3]
  EC50: 15 ± 4 µM
BRC4–RAD51 interaction; [4]
  EC50: 15 ± 4 µM

## CC(=O)N1N=C(c2c(-c3ccccc3)c3cc(Cl)ccc3[nH]c2=O)CC1c1ccc2c(ccn2C)c1 (stereo not drawn) [Compound 45d, 3-(1-Acetyl-5-(1-methyl-1H-indol-5-yl)-4,5-dihydro-1H-pyrazol-3-yl)-6-chloro-4-phenylquinolin-2(1H)-one]
[1]
  HR inhibition (in words): HR inhibition = not present
BRC4–RAD51 interaction; [3]
  EC50: 18 ± 1 µM
BRC4–RAD51 interaction; [4]
  EC50: 18 ± 1 µM

## CCCn1ncc2cc(C3CC(c4c(-c5ccccc5)c5cc(Cl)ccc5[nH]c4=O)=NN3C(C)=O)ccc21 (stereo not drawn) [Compound 49d, 3-(1-Acetyl-5-(1-propyl-1H-indazol-5-yl)-4,5-dihydro-1H-pyrazol-3-yl)-6-chloro-4-phenylquinolin-2(1H)-one]
BxPC3 cells
  olaparib association (increase of antiproliferative effect of olaparib): olaparib association = not present
[1]
  HR inhibition (in words): HR inhibition = not present
BRC4–RAD51 interaction; [3]
  EC50: 0.95 ± 0.05 µM
BRC4–RAD51 interaction; [4]
  EC50: 0.95 ± 0.05 µM

— article PMC7997579, “Synthetic Lethality in Pancreatic Cancer: Discovery of a New RAD51-BRCA2 Small Molecule Disruptor That Inhibits Homologous Recombination and Synergizes with Olaparib” (Journal of Medicinal Chemistry, 2020)
